Results as given in patent publication US20080176224A1, “Methods for Identifying a Patient as a Candidate for Treatment with a Long Acting Beta Agonist and for Predicting a Patient's Response to Long Acting Beta2 Agonist Therapy by Analysing Polymorphisms in the Beta2-Adrenergic Receptor Gene” (ASTRAZENECA AB, priority 2004, published 2008).
Structures can show the parent of a compound that is named as a salt.

Key:
[1] = system: patients with stable COPD; assay: Serial and pre-dose FEV1 (spirometry) in Viozan phase III clinical trials, stratified by ADRB2 haplotype; assay type: in vivo, human
Source text: (§1) Samples for genotyping were taken from 2450 patients recruited in four Viozan™ phase III clinical trials, namely SC-397-5097, SC-397-5098, SC-397-5099 and SC-397-5163. The patient population included male and female patients, aged 40 to 80 years, with stable COPD, symptoms for ≧2 years, and a smoking history of at least 15 pack years. […] Further details about the patient population, and the study designs, are described in Laursen et al. Respiratory Medicine (2003), Vol 97, Suppl A, S23-S33. Participation in the genetics sub-study was voluntary. Patients gave separate written informed consent for the genetic analysis. Patients all consented to provide DNA for use in studying the response to Viozan™. Viozan™ is a dual agonist, targeting the β2-adrenergic receptor and the […] genes, developed for the treatment of COPD (Rennard, 2003, Respiratory Medicine, Vol 97, Suppl A, S1-S2).
Pre- and post-dose FEV1 (forced expiratory volume in 1 second), the volume of air exhaled in the first second of the FVC manoeuvre (expressed in litres), measurements were taken at each study visit for all patients, as described in the clinical study protocols. Spirometry measurements were performed using a standard technique at each centre. Details about the spirometer used and the calibration records were provided by each centre. After resting for 15 minutes, slow vital capacity (SVC), forced vital capacity (FVC) and FEV1 were measured for at least three separate manoeuvres. The greatest values for each parameter were recorded.
Serial measurements were taken on day 1 (studies SC-397-5097 and SC-397-5098), weeks 8 and 12 (SC-397-5098) and weeks 14 and 26 (SC-397-5097). The AUC0-8, mean FEV1 at 8 hrs and mean maximum change from pre-dose (FEV1 max) were calculated. These measurements were used to investigate the bronchodilator properties of Viozan™, a long-acting β2-agonist.
Because serial FEV1 measurements were available for only a small number of subjects, and to increase the power of the analyses, the data was subsequently analysed in two subgroups (‘binning’) based on the haplotype pair of each patient; “C” haplotypes (i.e. patients having at least one copy of the ‘C’ haplotype) and “non-C” haplotype (i.e. patients having no ‘C’ haplotype). ‘C’ haplotype group included patients with haplotypes AC, BC and CC, whilst the non-C haplotype group included subjects with haplotypes AA, BB and AB. For the ‘binned’ haplotype analyses, subjects with one or more copies of haplotype D and E were not included, as there were few subjects with these haplotype pairs.
Assessment of the relationship between ADRB2 haplotype and the long-term FEV1 response, was achieved by comparing the pre-treatment and pre-dose baselines. The “pre-treatment” FEV1 baseline is for no prior exposure to the study drug, and was measured at day 1 (visit 2), immediately prior to treatment with Viozan™. The “pre-dose” FEV1 baseline is that measured prior to administration of drug on that day at subsequent visits, during the course of the trials, i.e. at weeks 8 and 12 (SC-397-5098) and weeks 14 and 26 (SC-397-5097). […] Observations are consistent with a trend for prolonged bronchodilation in the C haplotype subgroup and better overall long-term lung function in response to regular treatment with Viozan™ and long acting β2-agonists.
Analysis of the serial FEV1 response between first treatment and following 3 months of Viozan™ treatment was determined by subtracting the pre-treatment baseline (visit 2) from the absolute FEV1 measurements collected at visit 2 (day 1) and the combined data for week 12 (SC-397-5098) and week 14 (SC-397-5097). […] Serial FEV1 response at day 1 (visit 2) overlaps with that at 3 months post treatment, for patients in the ‘C’ haplotype subgroup. A similar response is observed for the non-C haplotype group at day 1 (visit 2). However, the serial FEV1 response, in the non-C haplotype group, appears to be reduced after 3 months of treatment. […]

[2] = system: patients with stable COPD; assay: BCSS (breathlessness, cough and sputum score) change from baseline in Viozan clinical trials, stratified by ADRB2 haplotype; assay type: in vivo, human
Source text: as §1
Changes in COPD symptoms were assessed using the BCSS (breathlessness, cough and sputum score), also referred to as the TSS (total symptom score). Each symptom, that is breathlessness, cough and sputum, was evaluated daily by the patient and recorded in a diary using a 5-point Likert scale (ranging from 0 to 4, with the higher values indicating more sever symptoms). The three item scores were summed to calculate the BCSS total score, resulting in a value between 0 and 12. The reliability and validity of the BCSS for evaluating symptoms in COPD is discussed in Leidy et al, 2003, Respiratory Medicine, Vol 97, SupplA, S59-S70. A mean change of ±1 point on the BCSS total score represents a substantial improvement in symptom severity for patients with moderate to severe COPD (Celli et al. Respiratory Medicine, (2003) Vol 97, SupplA, S35-43).

[3] = system: asthmatics; details: cited from earlier work
[4] = 3 mth (SC-397-5098) and 6 mth (SC-397-5097) treatment, trend
[5] = first exposure, trials SC-397-5097 and SC-397-5098

O=c1[nH]c2c(O)ccc(CCNCCS(=O)(=O)CCCOCCc3ccccc3)c2s1 [Viozan, Sibenadet HCl]
change in baseline (trough) FEV1 over the course of the trials, C-haplotype sub-group [1, 4]: increase | change in baseline (trough) FEV1 over the course of the trials, subjects lacking C-haplotype [1, 4]: decrease slightly | serial FEV1 response after 3 months of treatment, non-C haplotype group ([1]; change from pre-treatment baseline, combined week 12 and week 14 data, versus day 1): reduced | time after treatment at which FEV1 response was observed [1, 5]: 5 min | time for which FEV1 continued to increase post treatment [1, 5]: up to 2 hours | time of maximum FEV1 increase post study drug [1, 5]: one to two | serial FEV1 response, patients with BB haplotype pair ([1]; first exposure, BB (N=13), compared with other haplotype pairs): smaller | serial FEV1 response, patients with BC haplotype ([1]; first exposure, BC (N=21)): greatest response | difference in FEV1 between subgroups stratified by ADRB2 haplotype pair ([1]; serial FEV1 at first exposure, haplotype pairs AA, AC, BA, BB, BC): approximately 100 cc | patients with a clinically significant BCSS response compared to mean placebo response ([2]; C-haplotype group share of the clinical trial population): approximately 30% | BCSS response in C haplotype sub-group versus non-C haplotype group and versus placebo ([2]; change from baseline to final 4 weeks, combined SC-397-5163 and SC-397-5098): significantly better | reduction in mean BCSS, 'C' Haps (AC, BC, CC) compared to 'Non-C' Haps (AA, BB, BA) ([2]; combined studies SC-397-5163 and SC-397-5098): up to 0.6 | BCSS response in C haplotype sub-group versus non-C haplotype subgroup ([2]; study SC-397-5163, 3 month, C Haps N=84, non-C Haps N=201): significantly better | difference in mean BCSS change from baseline to final 4 weeks of treatment, Viozan versus placebo ([2]; unstratified patient population): neither statistically significant, nor considered to be of clinical importance

CC(C)(C)NCC(O)c1ccc(O)c(CO)c1 (centres unmarked) [albuterol, albuterol sulphate]
lung function response, 2/2 haplotype ([3]; 2/2 corresponds to AA): intermediate response | lung function response, 4/4 haplotype ([3]; 4/4 corresponds to BB): lowest response | lung function response, 4/6 haplotype ([3]; 4/6 corresponds to BC): best response
